In patent publication US20230414599A1, “NICOTINAMIDE, NICOTINAMIDE PRECURSORS AND NICOTINAMIDE METABOLITES AND COMPOSITIONS THEREOF FOR REDUCING THE TIME TO RESOLUTION OF SYMPTOMS IN PATIENTS WITH COVID-19 AND OTHER VIRAL INFECTIONS” (CONARIS RESEARCH INSTITUTE AG, priority 2020, published 2023):

How the values were obtained:
COVID-19 [1] = test: Pilot phase of the COVit-1 dietary intervention trial (n = 16 outpatients); assay type: in vivo
COVID-19 [2] = test: COVit-1 trial expanded to 56 patients (nicotinamide vs silica); assay type: in vivo; conditions: for Absolute Risk difference of being symptom-free, 95% Confidence Level: nicotinamide vs silica; for Relative Risk of being symptom-free: silica = REF
[3] = 1,000 mg/day immediate-release, n = 8, up to 21 days after positive SARS-CoV-2 test
[4] = 1,000 mg/day, n = 8, up to 21 days after positive test
[5] = only patients with symptoms persisting at week 4 queried, n = 3
[6] = baseline, before supplementation, n = 28
[7] = reduction at week 2 vs baseline, generalized linear mixed model
[8] = week 2, 1,000 mg/day immediate-release, n = 28

NC(=O)c1cccnc1 [Nicotinamide, nicotinamide]
Proportion of subjects still suffering from at least one COVID-19 symptom at or before day 21 after first testing positive (COVID-19 [1]; 1,000 mg nicotinamide per day for 28 days, n = 8): 50%
Patients with anorexia/loss of appetite at week 2 (COVID-19 [1]; [3]): 0
Patients with arthralgia at week 2 (COVID-19 [1]; [3]): 0
Patients with chest pain at week 2 (COVID-19 [1]; [3]): 0
Patients with cough at week 2 (COVID-19 [1]; [3]): 2
Patients with diarrhoea at week 2 (COVID-19 [1]; [3]): 1
Patients with dyspnoea/shortness of breath at week 2 (COVID-19 [1]; [3]): 2
Patients with fatigue at week 2 (COVID-19 [1]; [3]): 2
Patients with fever (total) at week 2 (COVID-19 [1]; [3]): 1
Patients with fever <38° C. at week 2 (COVID-19 [1]; [3]): 1
Patients with fever >38° C. at week 2 (COVID-19 [1]; [3]): 1
Patients with headache at week 2 (COVID-19 [1]; [3]): 1
Patients with impaired sense of smell at week 2 (COVID-19 [1]; [3]): 1
Patients with impaired sense of taste at week 2 (COVID-19 [1]; [3]): 1
Patients with myalgia at week 2 (COVID-19 [1]; [3]): 0
Patients with reduced physical performance at week 2 (COVID-19 [1]; [3]): 2
Patients with rhinorrhoea at week 2 (COVID-19 [1]; [3]): 1
Patients with sore throat/pharyngalgia at week 2 (COVID-19 [1]; [3]): 0
Patients with sputum production at week 2 (COVID-19 [1]; [3]): 1
Patients with vomiting at week 2 (COVID-19 [1]; [3]): 0
Patients requiring hospitalisation before week 2 (COVID-19 [1]; 1,000 mg/day, n = 8): no patient
Patients with persisting symptoms at week 4 (COVID-19 [1]; 1,000 mg/day, n = 8): 3
Symptom-free patients at week 4 (COVID-19 [1]; 1,000 mg/day, n = 8): 5
Patients with persisting symptoms at week 2 (COVID-19 [1]; [4]): 4
Symptom-free patients at week 2 (COVID-19 [1]; [4]): 4
Patients with persisting symptoms at week 6 (COVID-19 [1]; [5]): 2
Symptom-free patients at week 6 (COVID-19 [1]; [5]): 1
Chest pain, patients with symptom (COVID-19 [2]; [6]): 25.0%
Cough with sputum, patients with symptom (COVID-19 [2]; [6]): 25.0%
Cough, patients with symptom (COVID-19 [2]; [6]): 71.4%
Diarrhoea, patients with symptom (COVID-19 [2]; [6]): 28.6%
Fatigue, patients with symptom (COVID-19 [2]; [6]): 82.1%
Fever, patients with symptom (COVID-19 [2]; [6]): 50.0%
Head cold (rhinorrhoea), patients with symptom (COVID-19 [2]; [6]): 78.6%
Headache, patients with symptom (COVID-19 [2]; [6]): 78.6%
Impaired sense of smell, patients with symptom (COVID-19 [2]; [6]): 60.7%
Impaired sense of taste, patients with symptom (COVID-19 [2]; [6]): 64.3%
Joint pain, patients with symptom (COVID-19 [2]; [6]): 35.7%
Loss of appetite, patients with symptom (COVID-19 [2]; [6]): 42.9%
Muscle pain, patients with symptom (COVID-19 [2]; [6]): 50.0%
Other (individually reported) symptoms, patients with symptom (COVID-19 [2]; [6]): 28.6%
Reduced physical performance, patients with symptom (COVID-19 [2]; [6]): 82.1%
Shortness of breath, patients with symptom (COVID-19 [2]; [6]): 28.6%
Sore throat, patients with symptom (COVID-19 [2]; [6]): 35.7%
Vomiting, patients with symptom (COVID-19 [2]; [6]): 3.6%
Loss of appetite, OR estimate nicotinamide vs. silica (COVID-19 [2]; reduction at week 2 vs baseline, footnote: OR very high): >>^‡
Vomiting, OR estimate nicotinamide vs. silica (COVID-19 [2]; reduction at week 2 vs baseline, footnote: OR very high (unstable due to the small sample)): >>^‡‡
Chest pain, OR estimate nicotinamide vs. silica (COVID-19 [2]; [7]): 12.7
Cough with sputum, OR estimate nicotinamide vs. silica (COVID-19 [2]; [7]): 4.64
Cough, OR estimate nicotinamide vs. silica (COVID-19 [2]; [7]): 1.01
Diarrhoea, OR estimate nicotinamide vs. silica (COVID-19 [2]; [7]): 0.84
Fatigue, OR estimate nicotinamide vs. silica (COVID-19 [2]; [7]): 2.72
Fever, OR estimate nicotinamide vs. silica (COVID-19 [2]; [7]): 1.40
Head cold (rhinorrhoea), OR estimate nicotinamide vs. silica (COVID-19 [2]; [7]): 1.41
Headache, OR estimate nicotinamide vs. silica (COVID-19 [2]; [7]): 1.27
Impaired sense of smell, OR estimate nicotinamide vs. silica (COVID-19 [2]; [7]): 2.05
Impaired sense of taste, OR estimate nicotinamide vs. silica (COVID-19 [2]; [7]): 1.24
Joint pain, OR estimate nicotinamide vs. silica (COVID-19 [2]; [7]): 2.74
Muscle pain, OR estimate nicotinamide vs. silica (COVID-19 [2]; [7]): 1.09
Other (individually reported) symptoms, OR estimate nicotinamide vs. silica (COVID-19 [2]; [7]): 1.07
Reduced physical performance, OR estimate nicotinamide vs. silica (COVID-19 [2]; [7]): 1.19
Shortness of breath, OR estimate nicotinamide vs. silica (COVID-19 [2]; [7]): 1.45
Sore throat, OR estimate nicotinamide vs. silica (COVID-19 [2]; [7]): 9.25
Chest pain, patients with symptom (COVID-19 [2]; [8]): 3.9%
Cough with sputum, patients with symptom (COVID-19 [2]; [8]): 3.9%
Cough, patients with symptom (COVID-19 [2]; [8]): 19.2%
Diarrhoea, patients with symptom (COVID-19 [2]; [8]): 7.7%
Fatigue, patients with symptom (COVID-19 [2]; [8]): 30.8%
Fever, patients with symptom (COVID-19 [2]; [8]): 3.9%
Head cold (rhinorrhoea), patients with symptom (COVID-19 [2]; [8]): 19.2%
Headache, patients with symptom (COVID-19 [2]; [8]): 19.2%
Impaired sense of smell, patients with symptom (COVID-19 [2]; [8]): 23.1%
Impaired sense of taste, patients with symptom (COVID-19 [2]; [8]): 23.1%
Joint pain, patients with symptom (COVID-19 [2]; [8]): 3.9%
Loss of appetite, patients with symptom (COVID-19 [2]; [8]): 0.0%
Muscle pain, patients with symptom (COVID-19 [2]; [8]): 3.9%
Other (individually reported) symptoms, patients with symptom (COVID-19 [2]; [8]): 15.4%
Reduced physical performance, patients with symptom (COVID-19 [2]; [8]): 34.6%
Shortness of breath, patients with symptom (COVID-19 [2]; [8]): 26.9%
Sore throat, patients with symptom (COVID-19 [2]; [8]): 3.9%
Vomiting, patients with symptom (COVID-19 [2]; [8]): 0.0%
Symptom-free, % (COVID-19 [2]; week 2, all COVID-19 patients, n = 28, intention to treat): 35.7%
Absolute Risk difference of being symptom-free, 95% Confidence Level (COVID-19 [2]; week 2, all patients): 21.4 (−0.6; 43.4) %
Relative Risk of being symptom-free (COVID-19 [2]; week 2, all patients): 2.50
Symptom-free, % (COVID-19 [2]; week 2, female patients, n = 17): 47.1%
Absolute Risk difference of being symptom-free, 95% Confidence Level (COVID-19 [2]; week 2, female patients): 35.9 (8.1-63.8) ^ %
Relative Risk of being symptom-free (COVID-19 [2]; week 2, female patients): 4.24
Symptom-free, % (COVID-19 [2]; week 2, male patients, n = 11): 18.2%
Absolute Risk difference of being symptom-free, 95% Confidence Level (COVID-19 [2]; week 2, male patients): 1.8 (−35.5; 31.9) %
Relative Risk of being symptom-free (COVID-19 [2]; week 2, male patients): 0.91
Time from diagnosis to symptom-free, median (COVID-19 [2]; week 2 analysis, all patients): 11.0 days
Time from diagnosis to symptom-free, median (COVID-19 [2]; week 2 analysis, female patients): 10.5 days
Time from diagnosis to symptom-free, median (COVID-19 [2]; week 2 analysis, male patients): 13.0 days
Symptom-free, % (COVID-19 [2]; week 4, all COVID-19 patients, n = 28, intention to treat): 39.3%
Absolute Risk difference of being symptom-free, 95% Confidence Level (COVID-19 [2]; week 4, all patients): −3.57 (−22.2; 29.3) %
Relative Risk of being symptom-free (COVID-19 [2]; week 4, all patients): 0.92
Symptom-free, % (COVID-19 [2]; week 4, female patients, n = 17): 52.9%
Absolute Risk difference of being symptom-free, 95% Confidence Level (COVID-19 [2]; week 4, female patients): 2.94 (−30.2; 36.1) %
Relative Risk of being symptom-free (COVID-19 [2]; week 4, female patients): 1.06
Symptom-free, % (COVID-19 [2]; week 4, male patients, n = 11): 18.2%
Absolute Risk difference of being symptom-free, 95% Confidence Level (COVID-19 [2]; week 4, male patients): −0.12 (−48.2; 24.6) %
Relative Risk of being symptom-free (COVID-19 [2]; week 4, male patients): 0.61
Median time to resolution of symptoms compared to silica (COVID-19 [2]; week 4, n = 28 per group): approximately half as long
Time from diagnosis to symptom-free, median (COVID-19 [2]; week 4 analysis, all patients): 13.0 days
Time from diagnosis to symptom-free, median (COVID-19 [2]; week 4 analysis, female patients): 13.0 days
Time from diagnosis to symptom-free, median (COVID-19 [2]; week 4 analysis, male patients): 16.5 days
